Patent publication US6140368A, “Naphthols useful in antiviral methods” (The Regents of the University of California, priority 1998, dated 2000)
Several values for one entry are separate records, joined by “and”; a condition that tells them apart may be missing. Identical values can stand only once. Counter-ions that a name gives are not always drawn. Like-named read-outs stand apart in the source and are kept apart here.

Tests used:
HIV [1] = conditions: cited from earlier work
[2] = molecular target: HIV reverse transcriptase (Human immunodeficiency virus type 1 group M subtype B, UniProt P03366); assay: Reverse transcriptase scintillation proximity assay (Example 4, Table 2); type: biochemical; conditions: for IC50: read-out: IC50 (RT activity)
Summary of the method: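 Purified RT with biotinylated 17mer/50mer RNA-DNA template-primer (39 nm), pH 8.0 Tris with 10 mM MgCl2, 60 mM KCl, dNTPs plus tritiated dTTP; inhibitor preincubated 10 min at 37 °C before enzyme, reaction 3 min. Incorporation read by streptavidin SPA counting.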

HIV integrase [3] = molecular target: T1, HIV integrase (Human immunodeficiency virus type 1 group M subtype B, UniProt P04585); assay: biochemical; conditions: read-out: Inhibition of 3' processing activity (IC50)
HIV integrase [4] = molecular target: T1, HIV integrase; assay: biochemical; conditions: read-out: Inhibition of strand transfer (IC50)
HIV [5] = assay: Cell-based anti-HIV (XTT) assay (National Institutes of Health); conditions: run by the National Institutes of Health
From the text: The anti-viral evaluations branch of the National Institutes of Health also ran cell-based anti-HIV (XTT) assays and reverse transcriptase (RT) assays on a number of the novel compounds. […] These were: 31, 32, 35, 36, 53, 54, 57, 58, 91, 99, and 103.

293T cells = assay: Toxicity to 293T cells by growth curves and trypan blue exclusion; conditions: concentrations greater than ten times IC50 against HIV RT
WT reverse transcriptase = molecular target: T2, WT reverse transcriptase (Human immunodeficiency virus type 1 BH10, UniProt P03366); assay: Reverse transcriptase mutant assay, WT; type: biochemical, HIV-1
T2 construct: mature chain of Gag-Pol polyprotein
Protocol: (§1) The mutants were constructed using BspMI cassette mutagenesis as described previously by Boyer et al. (J Virol., 66:1031-1039 and 7533-7537 (1992)), which is hereby incorporated by reference. The RT assay has also been previously described by Boyer et al. (PNAS USA, 91:4882-4886 (1994)), which is also incorporated by reference. Briefly, RNA dependent DNA polymerase activity is assayed using purified RT protein and a poly(rC).olio(dG) template-primer as the substrate. The protein (1 μg) and substrate are assayed in a total reaction volume of 100 μl containing 0.01 unites poly(rC).olio(dG), 0.02 mM dGTP, 0.002 mCi [α-^32 P]dGTP, and a buffer containing 25 mM tris (pH 8.0), 75 mM KCL, 8.0 mM MgCl2, 2.0 mM dithiothreitol, and 10 mM 3-[(3-cholamidopropyl) diethylammoniol]-1-propane-sulfonate containing acetylated bovine serum albumin at 100 μg/ml. The assay mixture is incubated for 30 minutes, and then stopped by the addition of 50 μl of a 10 mg/ml solution of sheared and denatured salmon sperm DNA followed by 3.0 ml 10 percent trichloroacetic acid. The labeled polymer is collected by suction filtration on Whatman glass GF/C and counted.

[6] = molecular target: T3, L100I mutant reverse transcriptase (Human immunodeficiency virus type 1 BH10, UniProt P03366, L699I); assay: biochemical
T3 construct: mature RT cut from Gag-Pol polyprotein

[7] = molecular target: T4, K103N mutant reverse transcriptase (Human immunodeficiency virus type 1 BH10, UniProt P03366, K702N); assay: biochemical
T4 construct: mature RT cut from Gag-Pol polyprotein

[8] = molecular target: T5, V106A mutant reverse transcriptase (Human immunodeficiency virus type 1 BH10, UniProt P03366, V705A); assay: biochemical; type: biochemical
T5 construct: mature chain of Gag-Pol polyprotein

[9] = molecular target: T6, Y181I mutant reverse transcriptase (Human immunodeficiency virus type 1 BH10, UniProt P03366, Y780I); assay: biochemical
T6 construct: mature chain of Gag-Pol polyprotein

[10] = molecular target: T7, E138K mutant reverse transcriptase (Human immunodeficiency virus type 1 BH10, UniProt P03366, E737K); assay: biochemical
T7 construct: mature RT cut from Gag-Pol polyprotein

[11] = molecular target: L74V mutant reverse transcriptase (Human immunodeficiency virus type 1 BH10, UniProt P03366, L673V); assay: Reverse transcriptase mutant assay, L74V; type: biochemical, HIV-1
[12] = molecular target: AZT-21 (M41L/D67N/K70R/T215Y/K219Q) mutant reverse transcriptase (Human immunodeficiency virus type 1 BH10, UniProt P03366, D666N/K669R/K818Q/M640L/T814Y); assay: Reverse transcriptase mutant assay, AZT-21; type: biochemical, HIV-1; conditions: for % Activity Remaining: AZT-21 {M41L/D67N/K70R/T215Y/K219Q}
[13] = system: mutant strains of HIV reverse transcriptase; assay: Reverse transcriptase mutant assays, mutants overall; type: biochemical
Protocol: as §1

Compound: CCOc1cc(N=Nc2cc(Cl)c(S(=O)(=O)O)cc2Cl)c2cc(S(=O)(=O)O)ccc2c1N=Nc1c(S(=O)(=O)O)cc2cc(NC(=O)c3ccc(N)cc3)ccc2c1O [calcomine scarlet 4BNC, 2-naphthalenesulfonic acid, 7-[(4-aminobenzoyyl)amino]-3-[[4-[(2,5-dichloro-4-sulfophenyl)azo]-2-ethoxy-6-sulfo-1-naphthalenyl]azo]-4-hydroxy-,trisodium salt (9CI)]
- activity in AIDS antiviral screens (HIV [1]): confirmed active

Compound: Cc1ccccc1N=Nc1c(S(=O)(=O)[O-])cc2cc(NC(=O)Nc3ccc4c(O)c(N=Nc5ccc6cc(S(=O)(=O)[O-])ccc6c5)c(S(=O)(=O)[O-])cc4c3)ccc2c1O.[Na+].[Na+].[Na+] [brilliant paper scarlet G]
- activity in AIDS antiviral screens (HIV [1]): confirmed active

Compound: COc1ccccc1N=Nc1c(S(=O)(=O)[O-])cc2cc(NC(=O)Nc3ccc4c(O)c(N=Nc5ccc(S(=O)(=O)[O-])cc5C)c(S(=O)(=O)[O-])cc4c3)ccc2c1O.[Na+].[Na+].[Na+] [direct fast scarlet 4BSW]
- activity in AIDS antiviral screens (HIV [1]): confirmed active

Compound: O=C(O)CCC(NC(=O)c1ccc(N=Nc2c(S(=O)(=O)O)cc3cc(NC(=O)Nc4ccc5c(O)c(N=Nc6ccc(C(=O)NC(CCC(=O)O)C(=O)O)cc6)c(S(=O)(=O)O)cc5c4)ccc3c2O)cc1)C(=O)O (stereo not shown) [Compound 57]
- remaining activity at 10 µM ([2]; 0.05 h, 10 μM inhibitor, relative to dimethyl sulfoxide = 100%, read-out: % RT activity remaining at 10 μM): 0.6%
- IC50 (HIV integrase [3]): 600 nM
- IC50 (HIV integrase [4]): 900 nM
- conclusion of cell-based anti-HIV (XTT) assays and reverse transcriptase (RT) assays (HIV [5]): active or moderately active

Compound: O=C(O)/C=C/c1ccc(N=Nc2c(S(=O)(=O)O)cc3cc(NC(=O)Nc4ccc5c(O)c(N=Nc6ccc(/C=C/C(=O)O)cc6)c(S(=O)(=O)O)cc5c4)ccc3c2O)cc1 [Compound 5]
- IC50 [2]: 200 nM
- IC50 (HIV integrase [3]): 900 nM
- IC50 (HIV integrase [4]): 1000 nM
- conclusion of cell-based anti-HIV (XTT) assays and reverse transcriptase (RT) assays (HIV [5]): confirmed active
- toxicity to cells (293T cells): not toxic even at concentrations greater than ten times its IC50

Compound: O=C(Nc1ccc2c(O)c(N=Nc3cc(C(=O)O)ccc3C(=O)O)c(S(=O)(=O)O)cc2c1)Nc1ccc2c(O)c(N=Nc3cc(C(=O)O)ccc3C(=O)O)c(S(=O)(=O)O)cc2c1 [Compound 35]
- IC50 [2]: 500 nM
- IC50 (HIV integrase [3]): 800 nM
- IC50 (HIV integrase [4]): 2000 nM
- conclusion of cell-based anti-HIV (XTT) assays and reverse transcriptase (RT) assays (HIV [5]): active or moderately active

Compound: O=C(Nc1ccc2c(O)cc(S(=O)(=O)O)cc2c1)Nc1ccc2c(O)cc(S(=O)(=O)O)cc2c1 [Compound 1, carbonyl-J]
- IC50 [2]: ~5000 nM and 5000 nM
- IC50 (HIV integrase [3]): 2500 nM
- IC50 (HIV integrase [4]): 2500 nM
- remaining activity at 10 µM (WT reverse transcriptase; 10 μM): 29%
- remaining activity at 50 µM (WT reverse transcriptase; 50 μM): 3%
- remaining activity at 10 µM ([6]; 10 μM): 11%
- remaining activity at 50 µM ([6]; 50 μM): 1%
- remaining activity at 10 µM ([7]; 10 μM): 32%
- remaining activity at 50 µM ([7]; 50 μM): 3%
- % Activity Remaining ([8]; 10 μM): 33%
- remaining activity at 50 µM ([8]; 50 μM): 4%
- remaining activity at 10 µM ([9]; 10 μM): 18%
- remaining activity at 50 µM ([9]; 50 μM): 1%
- remaining activity at 10 µM ([10]; 10 μM): 29%
- remaining activity at 50 µM ([10]; 50 μM): 4%
- % Activity Remaining ([11]; 10 μM): 34%
- % Activity Remaining ([11]; 50 μM): 6%
- % Activity Remaining ([12]; 10 μM): 33%
- % Activity Remaining ([12]; 50 μM): 4%
- difference in inhibition with respect to the wild type enzyme ([12]; mutant M41L/D67N/K70R/T215Y/K219Q): virtually no difference in inhibition was found with respect to the wild type enzyme
- activity against mutant reverse transcriptases [13]: displays activity against non-nucleoside mutants as well as other mutants
